Assay results reported in article PMC13193874, “Targeting PIP5K ameliorates hepatic cancer by inhibiting PI3K/AKT and the autophagy mechanism and enhancing ROS-mediated apoptosis” (Frontiers in Pharmacology, 2026).

Target: PIP5K1B (Homo sapiens, UniProt O14986)
Assay: cell-free kinase assay (Thermo Fisher SelectScreen, ADP detection), 10-point dose response; […] inhibition at […]
Type: biochemical

Chain of PIP5K1B (O14986 whole entry): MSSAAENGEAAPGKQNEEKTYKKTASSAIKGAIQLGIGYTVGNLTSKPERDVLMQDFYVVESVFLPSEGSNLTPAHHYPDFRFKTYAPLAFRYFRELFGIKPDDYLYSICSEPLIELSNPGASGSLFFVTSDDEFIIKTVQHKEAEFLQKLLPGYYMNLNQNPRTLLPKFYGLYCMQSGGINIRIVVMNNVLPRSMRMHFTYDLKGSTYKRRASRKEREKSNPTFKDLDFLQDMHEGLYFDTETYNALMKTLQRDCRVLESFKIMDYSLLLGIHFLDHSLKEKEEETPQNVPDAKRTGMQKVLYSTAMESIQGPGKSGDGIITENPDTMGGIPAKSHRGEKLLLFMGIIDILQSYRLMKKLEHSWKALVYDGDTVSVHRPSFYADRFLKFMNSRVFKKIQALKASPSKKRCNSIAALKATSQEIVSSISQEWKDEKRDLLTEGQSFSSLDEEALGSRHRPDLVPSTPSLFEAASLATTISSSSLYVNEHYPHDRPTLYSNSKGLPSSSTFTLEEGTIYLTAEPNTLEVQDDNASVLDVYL

Fc1ccc(Nc2nc(Nc3ccc(-c4nc5ccccc5[nH]4)cc3)nc(N3CCOCC3)n2)cc1 [15g, N2-[4-(1H-benzimidazol-2-yl)phenyl]-N4-(4-fluorophenyl)-6-(4-morpholinyl)-1,3,5-triazine-2,4-diamine]
IC50: 281 nM
